Source: ChEMBL document CHEMBL4145540 (Eur J Med Chem, 2018)
The source made the active and inactive calls. The rule behind the calls is not given here.

Legend:
MCF7 = test: Antiproliferative activity against human MCF7 cells after 2 days by MTT assay; type: functional, cell-based; details: MCF7, 48 h
HT-29 = test: Antiproliferative activity against human HT-29 cells after 2 days by MTT assay; type: functional, cell-based; details: HT-29, 48 h
HeLa = test: Antiproliferative activity against human HeLa cells after 2 days by MTT assay; type: functional, cell-based; details: 48 h
A549 [1] = test: Cell cycle arrest in human A549 cells assessed as accumulation at S phase at 135 nM after 20 hrs by propidium iodide staining based flow cytometry (reference value: 16 +/- 1%); type: functional
A549 [2] = test: Antiproliferative activity against human A549 cells after 2 days by MTT assay; type: functional, cell-based; details: A549, 48 h
[3] = Selectivity index, ratio of IC50 for antiproliferative activity against HEK293 cells to IC50 for antiproliferative activity against human HL60 cells; type: toxicity, cell-based; details: HEK293 cells versus HL60 cells, read-out: Ratio IC50
HMEC-1 [4] = test: Antiproliferative activity against HMEC1 cells after 2 days by MTT assay; type: functional, cell-based; details: Homo sapiens, HMEC-1, 48 h
[5] = Selectivity index, ratio of IC50 for antiproliferative activity against HEK293 cells to IC50 for antiproliferative activity against human MCF7 cells; type: toxicity, cell-based; details: HEK293 cells versus MCF7 cells, read-out: Ratio IC50
A549 [6] = test: Cell cycle arrest in human A549 cells assessed as accumulation at G0/G1 phase at 135 nM after 20 hrs by propidium iodide staining based flow cytometry (reference value: 66 +/- 1%); type: functional
HL-60 = test: Antiproliferative activity against human HL60 cells after 2 days by MTT assay; type: functional, cell-based; details: HL-60, 48 h
A549 [7] = test: Cell cycle arrest in human A549 cells assessed as accumulation at G2/M phase at 135 nM after 20 hrs by propidium iodide staining based flow cytometry (reference value: 11 +/- 1%); type: functional
A549 [8] = test: Cell cycle arrest in human A549 cells assessed as accumulation at sub-G0 phase at 135 nM after 20 hrs by propidium iodide staining based flow cytometry (reference value: 6.6 +/- 0.1%); type: functional
MDA-MB-231 [9] = test: Antiproliferative activity against human MDA-MB-231 cells after 3 days by coulter counting method; type: functional, cell-based; details: MDA-MB-231, 72 h
[10] = Selectivity index, ratio of IC50 for antiproliferative activity against HEK293 cells to IC50 for antiproliferative activity against human HT-29 cells; type: toxicity, cell-based; details: HEK293 cells versus HT-29 cells, read-out: Ratio IC50
[11] = Selectivity index, ratio of IC50 for antiproliferative activity against HEK293 cells to IC50 for antiproliferative activity against human HeLa cells; type: toxicity, cell-based; details: HEK293 cells versus HeLa cells, read-out: Ratio IC50
HEK293 = test: Antiproliferative activity against HEK293 cells after 2 days by MTT assay; type: cell-based; details: Homo sapiens, HEK293, 48 h
A549 [12] = test: Cell cycle arrest in human A549 cells assessed as accumulation at sub-G0 phase at 275 nM after 20 hrs by propidium iodide staining based flow cytometry (reference value: 6.6 +/- 0.1%); type: functional
A549 [13] = test: Cell cycle arrest in human A549 cells assessed as accumulation at G2/M phase at 275 nM after 20 hrs by propidium iodide staining based flow cytometry (reference value: 11 +/- 1%); type: functional
MDA-MB-231 [14] = test: Inhibition of EBI binding to beta-tubulin colchicine binding site in human MDA-MB-231 cells at 10 uM preincubated for 16 hrs followed by EBI addition and measured after 1.5 hrs by Western blot analysis; type: cell-based
A549 [15] = test: Cell cycle arrest in human A549 cells assessed as accumulation at S phase at 275 nM after 20 hrs by propidium iodide staining based flow cytometry (reference value: 16 +/- 1%); type: functional
A549 [16] = test: Cell cycle arrest in human A549 cells assessed as accumulation at G0/G1 phase at 275 nM after 20 hrs by propidium iodide staining based flow cytometry (reference value: 66 +/- 1%); type: functional
HMEC-1 [17] = test: Vascular disruptive activity in HMEC1 cells assessed as disruption of preformed tubular networks after 4 hrs by matrigel based assay; type: functional, cell-based; details: Homo sapiens
A549 [18] = test: Cell cycle arrest in human A549 cells assessed as accumulation at S phase at 450 nM after 20 hrs by propidium iodide staining based flow cytometry (reference value: 16 +/- 1%); type: functional
A549 [19] = test: Cell cycle arrest in human A549 cells assessed as accumulation at G2/M phase at 450 nM after 20 hrs by propidium iodide staining based flow cytometry (reference value: 11 +/- 1%); type: functional
A549 [20] = test: Cell cycle arrest in human A549 cells assessed as accumulation at sub-G0 phase at 450 nM after 20 hrs by propidium iodide staining based flow cytometry (reference value: 6.6 +/- 0.1%); type: functional
A549 [21] = test: Cell cycle arrest in human A549 cells assessed as accumulation at G0/G1 phase at 450 nM after 20 hrs by propidium iodide staining based flow cytometry (reference value: 66 +/- 1%); type: functional
A549 [22] = test: Cell cycle arrest in human A549 cells assessed as accumulation at G2/M phase at 1500 nM after 20 hrs by propidium iodide staining based flow cytometry (reference value: 11 +/- 1%); type: functional
A549 [23] = test: Cell cycle arrest in human A549 cells assessed as accumulation at S phase at 1500 nM after 20 hrs by propidium iodide staining based flow cytometry (reference value: 16 +/- 1%); type: functional
A549 [24] = test: Cell cycle arrest in human A549 cells assessed as accumulation at G0/G1 phase at 1500 nM after 20 hrs by propidium iodide staining based flow cytometry (reference value: 66 +/- 1%); type: functional
A549 [25] = test: Cell cycle arrest in human A549 cells assessed as accumulation at sub-G0 phase at 1500 nM after 20 hrs by propidium iodide staining based flow cytometry (reference value: 6.6 +/- 0.1%); type: functional
MDA-MB-231 [26] = test: Inhibition of EBI binding to beta-tubulin colchicine binding site in human MDA-MB-231 cells at 100 uM preincubated for 16 hrs followed by EBI addition and measured after 1.5 hrs by Western blot analysis; type: cell-based
A549 [27] = test: Cell cycle arrest in human A549 cells assessed as accumulation at S phase at 55 nM after 20 hrs by propidium iodide staining based flow cytometry (reference value: 16 +/- 1%); type: functional
A549 [28] = test: Cell cycle arrest in human A549 cells assessed as accumulation at G0/G1 phase at 55 nM after 20 hrs by propidium iodide staining based flow cytometry (reference value: 66 +/- 1%); type: functional
A549 [29] = test: Disruption of microtubule network in human A549 cells assessed as appearance of tubulin aggregates at 220 nM after 16 hrs by Hoechst staining based immunofluorescence assay; type: cell-based
A549 [30] = test: Disruption of microtubule network in human A549 cells assessed as appearance of compressed and fragmented nuclei at 220 nM after 16 hrs by Hoechst staining based immunofluorescence assay; type: cell-based
A549 [31] = test: Cell cycle arrest in human A549 cells assessed as accumulation at G2/M phase at 55 nM after 20 hrs by propidium iodide staining based flow cytometry (reference value: 11 +/- 1%); type: functional
A549 [32] = test: Cell cycle arrest in human A549 cells assessed as accumulation at sub-G0 phase at 55 nM after 20 hrs by propidium iodide staining based flow cytometry (reference value: 6.6 +/- 0.1%); type: functional
A549 [33] = test: Cell cycle arrest in human A549 cells assessed as accumulation at G0/G1 phase at 2000 nM after 20 hrs by propidium iodide staining based flow cytometry (reference value: 66 +/- 1%); type: functional
A549 [34] = test: Cell cycle arrest in human A549 cells assessed as accumulation at sub-G0 phase at 2000 nM after 20 hrs by propidium iodide staining based flow cytometry (reference value: 6.6 +/- 0.1%); type: functional
A549 [35] = test: Cell cycle arrest in human A549 cells assessed as accumulation at G2/M phase at 2000 nM after 20 hrs by propidium iodide staining based flow cytometry (reference value: 11 +/- 1%); type: functional
A549 [36] = test: Cell cycle arrest in human A549 cells assessed as accumulation at G2/M phase at 650 nM after 20 hrs by propidium iodide staining based flow cytometry (reference value: 11 +/- 1%); type: functional
A549 [37] = test: Cell cycle arrest in human A549 cells assessed as accumulation at sub-G0 phase at 650 nM after 20 hrs by propidium iodide staining based flow cytometry (reference value: 6.6 +/- 0.1%); type: functional
A549 [38] = test: Cell cycle arrest in human A549 cells assessed as accumulation at G0/G1 phase at 650 nM after 20 hrs by propidium iodide staining based flow cytometry (reference value: 66 +/- 1%); type: functional
A549 [39] = test: Cell cycle arrest in human A549 cells assessed as accumulation at S phase at 650 nM after 20 hrs by propidium iodide staining based flow cytometry (reference value: 16 +/- 1%); type: functional
A549 [40] = test: Cell cycle arrest in human A549 cells assessed as accumulation at G0/G1 phase at 230 nM after 20 hrs by propidium iodide staining based flow cytometry (reference value: 66 +/- 1%); type: functional
A549 [41] = test: Cell cycle arrest in human A549 cells assessed as accumulation at G2/M phase at 230 nM after 20 hrs by propidium iodide staining based flow cytometry (reference value: 11 +/- 1%); type: functional
A549 [42] = test: Cell cycle arrest in human A549 cells assessed as accumulation at sub-G0 phase at 230 nM after 20 hrs by propidium iodide staining based flow cytometry (reference value: 6.6 +/- 0.1%); type: functional
A549 [43] = test: Cell cycle arrest in human A549 cells assessed as accumulation at S phase at 230 nM after 20 hrs by propidium iodide staining based flow cytometry (reference value: 16 +/- 1%); type: functional
A549 [44] = test: Cell cycle arrest in human A549 cells assessed as accumulation at G0/G1 phase at 750 nM after 20 hrs by propidium iodide staining based flow cytometry (reference value: 66 +/- 1%); type: functional
A549 [45] = test: Cell cycle arrest in human A549 cells assessed as accumulation at S phase at 750 nM after 20 hrs by propidium iodide staining based flow cytometry (reference value: 16 +/- 1%); type: functional
A549 [46] = test: Cell cycle arrest in human A549 cells assessed as accumulation at sub-G0 phase at 750 nM after 20 hrs by propidium iodide staining based flow cytometry (reference value: 6.6 +/- 0.1%); type: functional
A549 [47] = test: Cell cycle arrest in human A549 cells assessed as accumulation at G2/M phase at 750 nM after 20 hrs by propidium iodide staining based flow cytometry (reference value: 11 +/- 1%); type: functional

SMILES	IC50 (MCF7) [nM]	IC50 (HT-29) [nM]	IC50 (HeLa) [nM]	IC50 (A549 [2]) [nM]	IC50 (HMEC-1 [4]) [nM]	IC50 (HL-60) [nM]	IC50 (MDA-MB-231 [9]) [nM]	IC50 (HEK293) [nM]	further results
COc1ccc(/C=C\c2cc(OC)c(OC)c(OC)c2)cc1NC(=O)Oc1ccc(C(F)(F)F)cc1	9.2	27.6	21	270	30	40	21.5	57	Activity (A549 [1]): 14%; selectivity ratio [3]: 2 to 11; selectivity ratio [5]: 2 to 11; Activity (A549 [6]): 22%; Activity (A549 [7]): 39%; Activity (A549 [8]): 26%; selectivity ratio [10]: 2 to 11; selectivity ratio [11]: 2 to 11
COc1ccc(OC(=O)Nc2cc(/C=C\c3cc(OC)c(OC)c(OC)c3)ccc2OC)cc1	230	350	200	550	120	50	69	130	Activity (A549 [12]): 14%; Activity (A549 [13]): 46%; inhibition (MDA-MB-231 [14]): Active; Activity (A549 [15]): 14%; Activity (A549 [16]): 25%; Activity (HMEC-1 [17]): Dose-dependent effect
COc1ccc(/C=C\c2cc(OC)c(OC)c(OC)c2)cc1NC(=O)Oc1cccc(C)c1C	16	175	40	900	140	59	66	80	Activity (A549 [18]): 22%; Activity (A549 [19]): 42%; Activity (A549 [20]): 12%; Activity (A549 [21]): 24%
COc1ccc(/C=C\c2cc(OC)c(OC)c(OC)c2)cc1NC(=O)Oc1ccccc1OC	230	290	348	3000	400	350	> 100	160	Activity (A549 [22]): 43%; Activity (A549 [23]): 12%; Activity (A549 [24]): 29%; Activity (A549 [25]): 17%; Activity (HMEC-1 [17]): Dose-dependent effect; inhibition (MDA-MB-231 [26]): Active
COc1ccc(/C=C\c2cc(OC)c(OC)c(OC)c2)cc1NC(=O)Oc1ccccc1C(F)(F)F	44	16	15	110	19	6.7	13.7	4.1	Activity (A549 [27]): 15%; Activity (A549 [28]): 21%; Activity (A549 [29]): Active; Activity (A549 [30]): Active; Activity (A549 [31]): 44%; Activity (A549 [32]): 20%
COc1ccc(/C=C\c2cc(OC)c(OC)c(OC)c2)cc1NC(=O)Oc1c(C)cccc1C	440	600	320	3900	380	470	76	490	Activity (A549 [33]): 25%; Activity (A549 [34]): 23%; Activity (A549 [35]): 35%
COc1ccc(/C=C\c2cc(OC)c(OC)c(OC)c2)cc1NC(=O)Oc1ccc(C)c(C)c1	170	130	21	1300	130	69	41	97	Activity (A549 [36]): 41%; Activity (A549 [37]): 17%; Activity (A549 [38]): 24%; Activity (A549 [39]): 19%
COc1ccc(/C=C\c2cc(OC)c(OC)c(OC)c2)cc1NC(=O)Oc1ccccc1C	380	160	50	460	55	222	21	60	Activity (A549 [40]): 31%; Activity (A549 [41]): 40%; Activity (A549 [42]): 16%; Activity (A549 [43]): 13%
COc1ccc(/C=C\c2cc(OC)c(OC)c(OC)c2)cc1NC(=O)Oc1ccc(C)cc1	200	270	370	1500	160	52	14	144	Activity (A549 [44]): 24%; Activity (A549 [45]): 16%; Activity (A549 [46]): 27%; Activity (A549 [47]): 32%
